Laboratory results from ChEMBL document CHEMBL3608278 (J Med Chem, 2015).

Assays:
[1] = molecular target: T1, Potassium voltage-gated channel subfamily A member 3 (Homo sapiens, UniProt P22001); set-up: species or system Blood
[2] = molecular target: T1, Potassium voltage-gated channel subfamily A member 3; assay type: cell-based, CHO-K1
[3] = molecular target: T1, Potassium voltage-gated channel subfamily A member 3; experiment: cell-based; set-up: species or system Blood

T1 sequence (P22001 whole entry): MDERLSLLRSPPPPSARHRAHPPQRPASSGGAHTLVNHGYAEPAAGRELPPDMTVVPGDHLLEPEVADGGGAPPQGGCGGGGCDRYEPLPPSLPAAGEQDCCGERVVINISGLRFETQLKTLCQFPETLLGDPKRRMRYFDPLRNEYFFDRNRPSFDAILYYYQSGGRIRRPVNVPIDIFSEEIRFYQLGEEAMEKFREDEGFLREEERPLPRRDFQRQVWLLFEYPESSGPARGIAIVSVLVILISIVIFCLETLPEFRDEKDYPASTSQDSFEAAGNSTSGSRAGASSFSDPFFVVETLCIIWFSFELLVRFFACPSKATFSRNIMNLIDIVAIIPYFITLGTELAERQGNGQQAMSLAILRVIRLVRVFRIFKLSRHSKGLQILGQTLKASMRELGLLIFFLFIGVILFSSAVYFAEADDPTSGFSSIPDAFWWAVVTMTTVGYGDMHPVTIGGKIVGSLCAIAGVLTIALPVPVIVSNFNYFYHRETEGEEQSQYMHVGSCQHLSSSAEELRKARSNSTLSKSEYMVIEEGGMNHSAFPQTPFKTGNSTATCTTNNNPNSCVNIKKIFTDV

IC50 [1]	IC50 [2]	IC50 [3]	SMILES
0.083 nM	0.12 nM	0.047 nM	CC[C@H](C)[C@@H]1NC(=O)[C@@H](NC(=O)[C@H](CO)NC(=O)[C@@H](N)CCCNC(=N)N)CSSC[C@@H](C(=O)O)NC(=O)[C@H]([C@@H](C)O)NC(=O)CNC(=O)[C@@H]2CSSC[C@@H]3NC(=O)[C@H](CCC(N)=O)NC(=O)[C@H](Cc4ccccc4)NC(=O)[C@H](C)NC(=O)[C@H]([C@@H](C)O)NC(=O)[C@H](CSSC[C@H](NC(=O)[C@H](Cc4ccccc4)NC(=O)[C@H](CO)NC(=O)[C@H](CC(C)C)NC(=O)[C@H](CCCNC(=N)N)NC(=O)[C@H](Cc4ccc(O)cc4)NC(=O)[C@H](CCCCN)NC(=O)[C@H](CCSC)NC(=O)[C@H](CO)NC(=O)[C@H](Cc4cnc[nH]4)NC(=O)[C@H](CCC(=O)O)NC3=O)C(=O)N[C@@H](CCCNC(=N)N)C(=O)N[C@@H](CCCCN)C(=O)N[C@@H]([C@@H](C)O)C(=O)N2)NC(=O)[C@H](CCCNC(=N)N)NC(=O)[C@H](CO)NC(=O)[C@H](CCCCN)NC(=O)[C@@H]2CCCN2C(=O)[C@H]([C@@H](C)CC)NC(=O)[C@H]([C@@H](C)O)NC(=O)[C@H](CC(=O)O)NC1=O
0.635 nM	0.152 nM	0.398 nM	CC[C@H](C)[C@@H]1NC(=O)[C@@H](NC(=O)[C@H](CO)NC(=O)[C@@H](N)CCCNC(=N)N)CSSC[C@@H](C(=O)O)NC(=O)[C@H]([C@@H](C)O)NC(=O)CNC(=O)[C@@H]2CSSC[C@@H]3NC(=O)[C@H](CCC(N)=O)NC(=O)[C@H](Cc4ccccc4)NC(=O)[C@H](C)NC(=O)[C@H](CCCNC(=N)N)NC(=O)[C@H](CSSC[C@H](NC(=O)[C@H](Cc4ccccc4)NC(=O)[C@H](CO)NC(=O)[C@H](CC(C)C)NC(=O)[C@H](CCCNC(=N)N)NC(=O)[C@H](Cc4ccc(O)cc4)NC(=O)[C@H](CCCCN)NC(=O)[C@H](CCSC)NC(=O)[C@H](CO)NC(=O)[C@H](Cc4cnc[nH]4)NC(=O)[C@H](CCCCN)NC3=O)C(=O)N[C@@H](CCCNC(=N)N)C(=O)N[C@@H](CCCCN)C(=O)N[C@@H]([C@@H](C)O)C(=O)N2)NC(=O)[C@H](CCCNC(=N)N)NC(=O)[C@H](CO)NC(=O)[C@H](CCCCN)NC(=O)[C@@H]2CCCN2C(=O)[C@H]([C@@H](C)CC)NC(=O)[C@H]([C@@H](C)O)NC(=O)[C@H](CC(=O)O)NC1=O

SMILES	IC50 [1]	IC50 [2]	IC50 [3]
CC[C@H](C)[C@@H]1NC(=O)[C@@H](NC(=O)[C@H](CO)NC(=O)[C@@H](N)CCCNC(=N)N)CSSC[C@@H](C(=O)O)NC(=O)[C@H]([C@@H](C)O)NC(=O)CNC(=O)[C@@H]2CSSC[C@@H]3NC(=O)[C@H](CCC(N)=O)NC(=O)[C@H](Cc4ccccc4)NC(=O)[C@H](C)NC(=O)[C@H]([C@@H](C)O)NC(=O)[C@H](CSSC[C@H](NC(=O)[C@H](Cc4ccccc4)NC(=O)[C@H](CO)NC(=O)[C@H](CC(C)C)NC(=O)[C@H](CCCNC(=N)N)NC(=O)[C@H](Cc4ccc(O)cc4)NC(=O)[C@H](CCCCN)NC(=O)[C@H](CCSC)NC(=O)[C@H](CO)NC(=O)[C@H](Cc4cnc[nH]4)NC(=O)[C@H](CCCCN)NC3=O)C(=O)N[C@@H](CCCNC(=N)N)C(=O)N[C@@H](CCCCN)C(=O)N[C@@H]([C@@H](C)O)C(=O)N2)NC(=O)[C@H](CCCNC(=N)N)NC(=O)[C@H](CO)NC(=O)[C@H](CCCCN)NC(=O)[C@@H]2CCCN2C(=O)[C@H](CCCCN)NC(=O)[C@H]([C@@H](C)O)NC(=O)[C@H](CC(=O)O)NC1=O	13.5 nM	0.561 nM	4.67 nM
